In paper PMC11475281, “A Novel Liver Cancer-Selective Histone Deacetylase Inhibitor Is Effective against Hepatocellular Carcinoma and Induces Durable Responses with Immunotherapy” (ACS Pharmacology & Translational Science, 2024):

Experiments:
[1] = test system: Kupffer cells (liver resident macrophages); test: MTS cell viability assay, 72 h; assay type: cell-based; settings: Macrophage; Figure 1g; read-out: Anti-proliferation effects IC50 (μM) Kupffer
Excerpt: (§1) We then screened STR-V-53 and all the synthesized glycosylated HDACi for their effects on the viability of three cell lines: A549 (lung adenocarcinoma), Hep-G2 (HCC), and VERO (a normal kidney epithelial cell). We used SORA and STR-V-48, a previously disclosed nonglycosylated compound, as controls.[25] […] Additionally, compound STR-V-167, the peracetylated analog of STR-V-53, largely retained the Hep-G2 selectivity of STR-V-53 (Table S2). Subsequently, we evaluated the effects of STR-V-53 on cell proliferation using a panel of human HCC cell lines (Huh-7, SK-Hep-1, and Hep3B) as well as Kupffer cells (liver resident macrophages) by MTS assay. We observed that STR-V-53 is 7- to 16-fold more cytotoxic against these HCC cell lines relative to the Kupffer cells (Figure 1g). […] Based on their weak HDAC and cell proliferation inhibition activities, we de-emphasized further evaluation of the class III compounds.
(§2) 10-017-CV), supplemented with 10% fetal bovine serum (FBS) (Corning, 35-010-CV). Hep-G2 cells were cultured in phenol red-free Minimum Essential Medium (MEM) (Corning, 17-305-CV), supplemented with 10% fetal bovine serum (FBS). SK-Hep-1 in ATCC-formulated EMEM (ATCC® 30–2003™); Huh-7 in DMEM (containing 4 mM L-glutamine and 1 g/L glucose) with […]
(§3) Kupffer Cell Media (Sekisui XenoTech, LLC, Cat. #K8700). Cells were seeded into a 96-well plate (2000 counts/100uL) for 24 h prior to treatment and then treated with various drug concentrations for 72 h. All drugs were dissolved in media with DMSO concentration maintained at 1%. The effect of compounds on cell viability was measured using the MTS assay (CellTiter 96 Aqueous One Solution and CellTiter 96 Non-Radioactive Cell Proliferation Assays, Promega, Madison, WI) as described by the manufacturer. IC50s were determined using Prism GraphPad 8. […]

Huh-7 = test: MTS cell viability assay, 72 h; assay type: cell-based; settings: Homo sapiens, Figure 1g, read-out: Anti-proliferation effects IC50 (μM) Huh-7
Excerpt: as §1, §2, §3

Hep3B = test: MTS cell viability assay, 72 h; assay type: cell-based; settings: Homo sapiens, Figure 1g, read-out: Anti-proliferation effects IC50 (μM) Hep3 B
Excerpt: as §1, §2, §3

SK-Hep-1 = test: MTS cell viability assay, 72 h; assay type: cell-based; settings: Homo sapiens, SK-HEP1; Figure 1g; read-out: Anti-proliferation effects IC50 (μM) SK-Hep-1
Excerpt: as §1, §2, §3

healthy C57Bl/6 mice = test: Maximum tolerated dose determination; assay type: in vivo; settings: 100 mg/kg i.p. daily for 6 days
Method: (§4) Based on the data from the aforementioned in vitro studies, we selected STR-V-53 as a candidate for further evaluation in xenograft and murine models of HCC. Before the efficacy studies, we first determined the plasma stability (murine and human) and maximum tolerated dose (MTD) of STR-V-53 in healthy C57Bl/6 mice. […]. For MTD determination, STR-V-53 was administered via i.p. injection using a formulation containing excipients found in FDA-approved drugs—dimethylacetamide (DMA)/Cremophor RH 40 (CRH)/Water (10%/20%/70%)—that we developed.[17] […]
(§5) Then cells were treated with another 500 µL of 100 ug/mL PI staining at room temperature for 30 min. The cell cycle was analyzed with BD FACS Aria Illu analyzer, and the data were […]
(§6) The stability of STR-V-53 in murine and human plasmas was determined through a contract agreement with Cyprotex, an Evotec Company (https://www.cyprotex.com) […]
(§7) days in Kolliphor/DMA/water vehicle. We measured body weight and monitored daily food consumption, overall health, and mortality. […]
(§8) C57Bl/6 mice, 6–8 weeks old, 3 males and 3 females per treatment group, were injected intraperitoneally with STR-V-53 at […] in Kolliphor/DMA/water vehicle. Eight hours after the injection, organs were harvested and frozen at −80 °C for subsequent quantification by LC-

[2] = Plasma stability (Cyprotex); assay type: in vitro ADME
Method: as §4, §5, §6, §7, §8

[3] = Tissue distribution by LC-MS; assay type: in vivo; settings: both sexes, healthy mice, i.p. 25 mg/kg
Method: To determine if liver tissue accumulation plays a role in the observed in vivo efficacy of STR-V-53, we used LC-MS to evaluate the distribution of STR-V-53 in selected tissues (liver and lungs) and plasma. We analyzed samples from healthy mice exposed to STR-V-53 (i.p. injection) at 25 mg/kg for 8 h. […] The average level of STR-V-53 in circulation in the plasma of healthy mice was ∼ […] 8 h postinjection. In contrast, the level of STR-V-53 in the liver was approximately 4 times its plasma level (Figure 5d). […]
for another 48 h. Cells were washed with cold 1x PBS solution twice and trypsinized.
Subsequently, cells were collected using 5 mL 1x PBS buffer and fixed overnight at -20 °C using 70% ethanol. Cells were centrifuged in 1x PBS on day 2 at 4 °C with a spin speed of 3,000g, re-suspended in 1x PBS, and centrifuged again under the same condition. The supernatant was removed, and the cell pellets were re-suspended with 500 µL of 200 ug/mL RNase for 30 min.
as §5
The stability of STR-V-53 in murine and human plasmas was determined through a contract agreement with Cyprotex, an Evotec Company (https://www.cyprotex.com)
Maximum tolerated dose determination
C57BL/6 mice, 6–8 weeks old, 3 males and 3 females per treatment group, were injected […]
days in Kolliphor/DMA/water vehicle. We measured body weight and monitored daily food consumption, overall health, and mortality. On the eighth day, mice were sacrificed by cervical dislocation, and organs were harvested and frozen at −80 ◦C.
Tissue distribution studies
C57Bl/6 mice, 6–8 weeks old, 3 males and 3 females per treatment group, were injected […]
the injection, organs were harvested and frozen at −80 °C for subsequent quantification by LC-

cytochrome P450 = assay type: in vitro ADME; settings: maximum tested concentration of 100 μM
HDAC3/ NCOR2 = HDAC3/ NCOR2 (Homo sapiens, UniProt O15379); test: HDAC isoform inhibition (BPS Bioscience)
HDAC10 = HDAC10 (Homo sapiens, UniProt Q969S8); test: HDAC isoform inhibition (BPS Bioscience)
Sequence of HDAC10 (Q969S8 whole entry, canonical isoform): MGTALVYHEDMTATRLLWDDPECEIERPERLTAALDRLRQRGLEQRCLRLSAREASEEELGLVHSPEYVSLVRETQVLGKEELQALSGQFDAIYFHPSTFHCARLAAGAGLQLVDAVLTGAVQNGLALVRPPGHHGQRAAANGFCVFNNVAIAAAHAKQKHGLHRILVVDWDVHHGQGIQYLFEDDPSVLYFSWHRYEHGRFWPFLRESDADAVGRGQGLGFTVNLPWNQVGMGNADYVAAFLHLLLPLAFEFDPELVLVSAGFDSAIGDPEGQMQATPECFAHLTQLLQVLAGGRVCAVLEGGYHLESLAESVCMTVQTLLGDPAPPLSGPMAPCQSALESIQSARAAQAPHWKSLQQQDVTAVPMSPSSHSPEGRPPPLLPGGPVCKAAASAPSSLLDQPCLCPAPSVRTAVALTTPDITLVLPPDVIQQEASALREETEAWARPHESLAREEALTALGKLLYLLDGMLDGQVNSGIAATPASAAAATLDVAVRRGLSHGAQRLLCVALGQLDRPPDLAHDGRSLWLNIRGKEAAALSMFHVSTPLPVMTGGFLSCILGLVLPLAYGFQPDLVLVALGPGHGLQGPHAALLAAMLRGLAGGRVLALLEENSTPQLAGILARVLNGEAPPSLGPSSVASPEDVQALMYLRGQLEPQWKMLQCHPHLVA

Sequence of HDAC3/ NCOR2 (O15379 whole entry, canonical isoform): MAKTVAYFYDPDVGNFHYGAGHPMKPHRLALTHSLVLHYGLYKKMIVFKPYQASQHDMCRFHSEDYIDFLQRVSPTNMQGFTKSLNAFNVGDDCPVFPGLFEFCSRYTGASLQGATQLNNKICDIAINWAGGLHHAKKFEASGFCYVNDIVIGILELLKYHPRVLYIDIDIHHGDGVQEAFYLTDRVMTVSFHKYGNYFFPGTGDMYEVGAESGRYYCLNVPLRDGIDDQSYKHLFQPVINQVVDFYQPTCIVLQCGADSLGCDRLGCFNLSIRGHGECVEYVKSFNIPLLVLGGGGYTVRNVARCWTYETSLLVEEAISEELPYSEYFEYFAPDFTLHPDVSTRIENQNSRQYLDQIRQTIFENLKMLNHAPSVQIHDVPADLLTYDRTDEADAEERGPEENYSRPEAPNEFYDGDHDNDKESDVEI
Sequence of HDAC3/ NCOR2 (Q9Y618 395-489 partner limits assumed): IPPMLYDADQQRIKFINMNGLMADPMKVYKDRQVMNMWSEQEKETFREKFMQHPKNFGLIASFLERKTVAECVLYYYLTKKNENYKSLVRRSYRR

O=C(CCCCCCn1cc(-c2ccc(O[C@H]3O[C@H](CO)[C@@H](O)[C@H](O)[C@H]3O)cc2)nn1)NO [STR-V-53]
IC50 [1]: > 100 µM | IC50 (Huh-7): 6.25 µM | IC50 (Hep3B): 11.1 µM | IC50 (SK-Hep-1): 13.9 µM | Body weight as an indicator of toxicity (healthy C57Bl/6 mice): no significant body weight loss | half-life ([2]; human plasma): > 1200 min | half-life ([2]; mouse, murine plasma): 46 min | Kp at 8 h ([3]; C57Bl/6, mouse, liver (relative to plasma), ip, 8 h, read-out: Level in the liver relative to plasma level): ~4 | concentration at 8 h ([3]; C57Bl/6, mouse, plasma, ip, 8 h postinjection, read-out: Average level in plasma): ~0.01 ng/mL | Level in the lungs ([3]; 8 h): below the detection limit | Cytochrome P450 inhibition (cytochrome P450): no inhibition | IC50 (HDAC3/ NCOR2): 0.021 µM | IC50 (HDAC10): 0.054 µM
